pIC50: −log10 of the molar value.
What was measured:
Assay type in all cases: cell-based
B-cell line BJAB = experiment: BJAB (B-cell) toxicity, light scatter; settings: Homo sapiens; BJAB B-cells, flow cytometric light scatter; read-out: Toxicity BJAB Light Scat.
Description: The B-cell line BJAB was cultured in log phase in RPMI1640+10% heat-inactivated fetal bovine serum, lx L-glutamine, lx penicillin, lx […] and 1× beta-mercaptoethanol at 37° C., 5% CO2. First, BJABs were harvested, spun and resuspended in culture medium to a concentration of 7.7×10^5 cells/mL. 65 uL cells were mixed with 65 uL compound, in duplicate and in the presence of 0.1% DMSO in a V-bottomed 96-well tissue culture plate. Cells were incubated with compound at various dilutions at 37° C., 5% CO2. Toxicity was assessed by flow cytometric analysis of cellular light scatter.

Jurkat cells = experiment: Jurkat (T-cell) toxicity, light scatter; settings: Homo sapiens, 18-24 hr, flow cytometric light scatter, read-out: Toxicity Jurkat Light Scat.
Description: Dilute Jurkat cells to 2×10^5 cells/ml in complete RPMI (10% heat-inactivated fetal bovine serum) media and incubate at 37° C., 5% CO2 for 18 hours. Add 65 ul cells at 7.7×10^5 cells/ml to a 96-well V-bottom plate (TC-treated, Costar) containing 65 ul 2× compound (final vehicle concentration is 0.5% DMSO, 1.5% MeOH). Mix, incubate plates for 18-24 hr at 37° C., 5% CO2. Toxicity was assessed by flow cytometric analysis of cellular light scatter

[1] = test system: cultured human mast cells (CHMC); experiment: CHMC low cell density ionomycin activation: tryptase assay; settings: Homo sapiens, Mast cell, Low Density CHMC, ionomycin activation
[2] = test system: cultured human mast cells (CHMC); experiment: CHMC low cell density IgE activation: tryptase and LTC4 assays; settings: Homo sapiens, Mast cell, Low Density CHMC, anti-IgE activation
Summary of the method: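 Degranulation measured after 30 min anti-IgE challenge at 37° C of CHMC plated at 1000-1500 cells/well following 1 h preincubation. Readouts: LTC4 by ELISA on donor-specific diluted supernatants, and tryptase activity from a 30 min room-temperature substrate reaction.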

[3] = test system: basophils in whole human peripheral blood; experiment: Basophil IgE activation: histamine release assay; settings: Homo sapiens, anti-IgE activation
Description: The basophil activation assay was carried out using whole human peripheral blood from donors allergic to dust mites with the majority of the red blood cells removed by dextran sedimentation. Human peripheral blood was mixed 1:1 with 3% dextran T500 and RBCs were allowed to settle for 20-25 min. The upper fraction was diluted with 3 volumes of D-PBS and cells were spun down for 10 min at 1500 rpm, RT. Supernatant was aspirated and cells were washed in an equal volume MT-buffer. Finally, cells were resuspended in MT-buffer containing 0.5% DMSO in the original blood volume. 80 uL cells were mixed with 20 uL compound in the presence of 0.5% DMSO, in triplicate, in a V-bottom 96-well tissue culture plate. A dose range of 8 compound concentrations was tested resulting in a 10-point dose response curve including maximum (stimulated) and minimum (unstimulated) response. […] The cells were stimulated for 30 minutes at 37° C., 5% CO2. The plate was spun for 10 min at 1500 rpm at room temperature and 80 uL the supernatant was harvested for histamine content analysis using the histamine ELISA kit supplied by Immunotech. The ELISA was performed according to supplier's instructions.

[4] = test system: basophils in whole human peripheral blood; experiment: Basophil ionomycin activation: histamine release assay; settings: Homo sapiens
Description: Assays for ionomycin-induced basophil cell degranulation were carried out as described for the Basophil IgE or Dustmite Activation Assay (Section 6.4.6, supra), with the exception that following incubation with compound, cells were stimulated with 20 μl of 2 μM ionomycin.

[5] = test system: bone marrow derived mast cells (BMMC); experiment: BMMC high cell density IgE activation: degranulation (hexosiminidase, histamine), leukotriene (LTC4) and cytokine (TNFalpha, IL-6) assays; settings: Mus musculus, anti-IgE activation, hexosaminidase release, read-out: BMMC anti-IgE hexos IC50
Description: After sensitizing, cells are counted, pelleted (1000 rpm, 5-10 minutes), and resuspended at 1-3×10^6 cells/ml in MT buffer. Add 100 ul of cell suspension to each well and 100 ul of compound dilutions. The final vehicle concentration is 0.5% DMSO. Incubate at 37° C. (5% CO2) for 1 hour. After 1 hour of compound treatment, stimulate cells with 6× stimulus (60 ng/ml DNP-BSA). Mix wells with the cells and allow plates to incubate at 37° C. (5% CO2) for one hour. After 1 hour incubation, pellet cells (10 minutes, 1000 RPM) and collect 200 ul per well of the supernatant, being careful not to disturb pellet, and transfer to a clean tube or 96-well plate. Place the supernatant plate on ice. During the 4-5 hour step (see next) perform the hexosiminidase assay. Resuspend cell pellet in 240 ul WEI-conditioned media containing 0.5% DMSO and corresponding concentration of compound. Incubate BMMC cells for 4-5 hours at 37° C. (5% CO2). After incubation, pellet cells (1000 RPM, 10 minutes) and collect 225 ul per well and place in −80° C. until ready to perform ELISAS. ELISAS are performed on appropriately diluted samples (determined empirically for each donor cell population so that the sample measurement falls within the standard curve) following the supplier's instructions.
Add 50 uL of BMMC cell supernatant (see above) to the hexoseaminidase substrate, place at 37° C. for 30 minutes and read the plate at 5, 10, 15, and 30 minutes on a spectrophotometer.

[6] = test system: ionophore-induced degranulation of mast and/or basophil cells; experiment: Ionophore (ionomycin or A23187)-induced degranulation counter screen; settings: Mus musculus; high density BMMC, ionomycin activation, hexosaminidase release; read-out: BMMC Ionomycin Hexos. IC50
Description: In addition to the FcεRI or FcγRI degranulation pathways discussed above, degranulation of mast and/or basophil cells can be induced by other agents. For example, ionomycin, a calcium ionophore that bypasses the early FcεRI or FcγRI signal transduction machinery of the cell, directly induces a calcium flux that triggers degranulation. Referring again to FIG. 2, activated PLCγ initiates pathways that lead to, among other things, calcium ion mobilization and subsequent degranulation. As illustrated, this Ca^2+ mobilization is triggered late in the FcεRI signal transduction pathway. […] Other ionophores that induce degranulation in this manner include A23187. The ability of granulation-inducing ionophores such as ionomycin to bypass the early stages of the FcεRI and/or FcγRI signaling cascades may be used as a counter screen to identify active compounds of the invention that specifically exert their degranulation-inhibitory activity by blocking or inhibiting the early FcεRI or FcγRI signaling cascades, as discussed above.
Assays suitable for determining the IC50 of ionophore-induced degranulation include any of the previously-described degranulation assays, with the modification that the cells are stimulated or activated with a degranulation-inducing calcium ionophore such as ionomycin or A23187 (A.G. Scientific, San Diego, Calif.) instead of anti-IgE antibodies or an IgE-specific allergen. Specific assays for assessing the ability of a particular 2,4-pyrimidinediamine compound of the invention to inhibit ionophore-induced degranulation are provided in the Examples section.

[7] = tryptase readout, read-out: CHMC Ionomycin Tryptase
[8] = LTC4 readout, read-out: CHMC anti-IgE LTC4
[9] = tryptase readout, read-out: CHMC anti-IgE Tryptase
[10] = hexosaminidase readout, read-out: CHMC Ionomycin Hexos.
[11] = hexosaminidase readout, read-out: CHMC anti-IgE Hexos.

SMILES | pIC50 (B-cell line BJAB) | pIC50 (Jurkat cells) | pIC50 [1, 7] | pIC50 [2, 8] | pIC50 [2, 9] | pIC50 [3] | pIC50 [4] | pIC50 [1, 10] | pIC50 [2, 11] | pIC50 [5] | pIC50 [6]
Cc1cccc(Nc2ncc(F)c(Nc3cccc(C)c3)n2)c1 [Compound R092788, N2,N4-bis(3-methylphenyl)-5-fluoro-2,4-pyrimidinediamine] | < 5.00 | < 5.00 | – | – | – | – | – | – | – | – | –
Oc1cccc(Nc2ncc(Br)c(Nc3cccc(O)c3)n2)c1 [Compound R925778, N2,N4-Bis(3-hydroxyphenyl)-5-bromo-2,4-pyrimidinediamine] | < 5.00 | < 5.00 | < 5.00 | 6.74 | 6.65 | – | – | – | – | – | –
Oc1cccc(Nc2nc(Nc3ccc4c(c3)OCCO4)ncc2Br)c1 [Compound R925797, 5-Bromo-N2-(3,4-ethylenedioxyphenyl)-N4-(3-hydroxyphenyl)-2,4-pyrimidinediamine] | < 5.00 | < 5.00 | < 5.00 | 6.55 | 6.07 | – | – | – | – | – | –
COc1ccc(Nc2ncc(F)c(Nc3ccc(OC)cc3)n2)cc1 [Compound R926017, N2,N4-Bis(4-methoxyphenyl)-5-fluoro-2,4-pyrimidinediamine] | – | – | – | – | – | 6.28 | < 5.00 | < 5.00 | 5.84 | 5.85 | 5.02
Fc1cnc(Nc2cccc(OC(F)(F)F)c2)nc1Nc1cccc(OC(F)(F)F)c1 [Compound R926038, N2,N4-Bis(3-trifluoromethoxyphenyl)-5-fluoro-2,4-pyrimidinediamine] | – | – | – | – | – | < 5.00 | < 5.00 | – | – | < 5.00 | < 5.00
Fc1cnc(Nc2ccc(Cl)c(C(F)(F)F)c2)nc1Nc1ccc(Cl)c(C(F)(F)F)c1 [Compound R926039, N2,N4-Bis(4-chloro-3-trifluoromethylphenyl)-5-fluoro-2,4-pyrimidinediamine] | – | – | – | – | – | < 5.00 | < 5.00 | – | – | < 5.00 | < 5.00
CCOc1ccc(Nc2cc(C(=O)OC)nc(Nc3ccc(OCC)cc3)n2)cc1 [Compound R926058, N2,N4-Bis(4-ethoxyphenyl)-6-methoxycarbonyl-2,4-pyrimidinediamine] | – | – | – | – | – | < 5.00 | < 5.00 | – | – | < 5.00 | < 5.00
CN(C)c1ccc(Nc2ncc(F)c(Nc3ccc(N(C)C)cc3)n2)cc1 [Compound R926086, N2,N4-Bis[4-(N,N-dimethylamino)phenyl]-5-fluoro-2,4-pyrimidinediamine] | – | – | – | – | – | 5.60 | < 5.00 | – | – | 5.55 | 5.14
CCOc1ccc(Nc2nc(Nc3cccc(O)c3)ncc2F)cc1 [Compound R926146, N4-(4-Ethoxyphenyl)-N2-(3-hydroxyphenyl)-5-fluoro-2,4-pyrimidinediamine] | < 5.00 | < 5.00 | – | 5.80 | – | – | – | 5.17 | 6.12 | 5.87 | 5.30
Fc1cnc(Nc2ccc(Cl)cc2)nc1Nc1ccc(Cl)cc1 [Compound R926206, N2,N4-Bis(4-chlorophenyl)-5-fluoro-2,4-pyrimidinediamine] | – | – | – | – | – | < 5.00 | < 5.00 | – | – | 5.18 | 5.07
Fc1cnc(Nc2cccc(Cl)c2)nc1Nc1cccc(Cl)c1 [Compound R926209, N2,N4-Bis(3-chlorophenyl)-5-fluoro-2,4-pyrimidinediamine] | – | – | – | – | – | < 5.00 | < 5.00 | – | – | 5.00 | 5.04
CCOc1ccc(Nc2ncc(F)c(Nc3ccc4c(c3)OCCO4)n2)cc1 [Compound R926211, N2-(4-Ethoxyphenyl)-N4-(3,4-ethylenedioxyphenyl)-5-fluoro-2,4-pyrimidinediamine] | – | – | 5.01 | – | 5.89 | 5.81 | < 5.00 | < 5.00 | 5.57 | 5.41 | < 5.00
COc1ccc(Nc2ncc(F)c(Nc3ccc4c(c3)OCCO4)n2)cc1OC [Compound R926212, N2-(3,4-Dimethoxyphenyl)-N4-(3,4-ethylenedioxyphenyl)-5-fluoro-2,4-pyrimidinediamine] | – | – | < 5.00 | 6.35 | 6.18 | 6.30 | < 5.00 | – | – | 6.30 | 5.30
Cc1cnc(Nc2cccc(O)c2)nc1Nc1cccc(O)c1 [Compound R926248, N2,N4-Bis(3-hydroxyphenyl)-5-methyl-2,4-pyrimidinediamine] | < 5.00 | < 5.00 | < 5.00 | 6.12 | 6.05 | – | – | – | – | – | –
Oc1cccc(Nc2ccnc(Nc3cccc(O)c3)n2)c1 [Compound R926249, N2,N4-Bis(3-hydroxyphenyl)-2,4-pyrimidinediamine] | < 5.00 | < 5.00 | < 5.00 | 6.60 | 6.30 | – | – | – | – | – | –
CC(=O)Oc1cccc(Nc2ncc(F)c(Nc3cccc(OC(C)=O)c3)n2)c1 [Compound R926387, N2,N4-Bis(3-acetyloxyphenyl)-5-fluoro-2,4-pyrimidinediamine] | < 5.00 | < 5.00 | < 5.00 | 6.15 | 6.19 | – | – | – | – | – | –

Reference: US10828301B2, “2,4-pyrimidinediamine compounds and their uses” (Rigel Pharmaceuticals, Inc, priority 2002, dated 2020)
